Here are results for 30 molecules from patent publication US12686690B2, “Macrocyclic urea orexin receptor agonists” (Merck Sharp & Dohme LLC, priority 2020, dated 2026).

The target in the assay is T1, hOX2R (Homo sapiens, UniProt O43614).
T1 construct: expressed in transfected cells; host or cells: CHO cells (G418 selection)
T1 sequence (O43614 1-444): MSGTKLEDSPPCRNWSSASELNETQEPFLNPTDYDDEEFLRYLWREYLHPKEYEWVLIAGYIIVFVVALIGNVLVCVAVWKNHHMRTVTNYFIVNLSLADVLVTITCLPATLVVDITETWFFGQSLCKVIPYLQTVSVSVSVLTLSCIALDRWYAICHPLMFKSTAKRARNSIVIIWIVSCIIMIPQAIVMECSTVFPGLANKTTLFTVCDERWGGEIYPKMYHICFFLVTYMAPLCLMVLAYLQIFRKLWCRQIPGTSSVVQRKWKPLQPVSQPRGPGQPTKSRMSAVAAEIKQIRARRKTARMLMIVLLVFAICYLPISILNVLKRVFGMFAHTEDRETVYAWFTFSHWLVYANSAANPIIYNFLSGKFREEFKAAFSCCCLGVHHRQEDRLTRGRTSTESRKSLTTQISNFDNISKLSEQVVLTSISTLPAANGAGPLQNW
As to the kind of experiment: hOX2R IPone assay (orexin receptor agonism). It counts as cell-based. To be noted: IPone readout; for hOX2R_Ipone max %act: maximal activation; for EC50: orexin receptor agonist, read-out: hOX2R_IPone EC50.

Broadly, the EC50 is the concentration at which the effect is half-maximal.

As to `CCN1C(=O)NC(CCCOC)CCCCCOc2nc(cn3ccnc23)-c2cc(ncc2OC)[C@H]1C` (single isomer, unassigned) [Example 60A], the hOX2R_Ipone max %act is reported as 100.4% and the EC50 was 52.1 nM.

With `CCN1C(=O)NC(CCCOC)CCCCCOc2nc(cn3ccnc23)-c2cc(ncc2OC)[C@H]1C` (single isomer, unassigned) [Example 60B], the hOX2R_Ipone max %act is 100.9% and the EC50 amounted to 2.2 nM.

Consider `CCN1C(=O)NC(CC2CCC2)CCCCCOc2nc(cn3ccnc23)-c2cc(ncc2OC)[C@H]1C` (single isomer, unassigned) [Example 61A], for which the hOX2R_Ipone max %act is given as 100.3% and the EC50 worked out at 34.6 nM.

For `CCN1C(=O)NC(CC2CCC2)CCCCCOc2nc(cn3ccnc23)-c2cc(ncc2OC)[C@H]1C` (single isomer, unassigned) [Example 61B], the hOX2R_Ipone max %act is 100.9% and the EC50 was determined as 1.3 nM.

For `CCOCC1CCCCCOc2nc(cn3ccnc23)-c2cc(ncc2OC)[C@@H](C)N(CC)C(=O)N1` (single isomer, unassigned) [Example 62A], the hOX2R_Ipone max %act is reported as 99.9% and the EC50 amounted to 39.2 nM.

Consider `CCOCC1CCCCCOc2nc(cn3ccnc23)-c2cc(ncc2OC)[C@@H](C)N(CC)C(=O)N1` (single isomer, unassigned) [Example 62B], for which the hOX2R_Ipone max %act is given as 100.9% and the EC50 is 1.4 nM.

For the molecule `CCN1C(=O)NC(C(C)(C)C)CCCCCOc2nc(cn3ccnc23)-c2cc(ncc2OC)[C@H]1C` (single isomer, unassigned) [Example 63A], the hOX2R_Ipone max %act is 98.43% and the EC50 stood at 315 nM.

For `CCN1C(=O)NC(C(C)(C)C)CCCCCOc2nc(cn3ccnc23)-c2cc(ncc2OC)[C@H]1C` (single isomer, unassigned) [Example 63B], the hOX2R_Ipone max %act is listed as 103.3% and the EC50 was determined as 5.1 nM.

For the molecule `CCC(CC)CC1CCCCCOc2nc(cn3ccnc23)-c2cc(ncc2OC)[C@@H](C)N(CC)C(=O)N1` (single isomer, unassigned) [Example 64A], the hOX2R_Ipone max %act came out at 102.7% and the EC50 came to 3.5 nM.

For `CCC(CC)CC1CCCCCOc2nc(cn3ccnc23)-c2cc(ncc2OC)[C@@H](C)N(CC)C(=O)N1` (single isomer, unassigned) [Example 64B], the hOX2R_Ipone max %act is 99.8% and the EC50 was determined as 1.6 nM.

With `CCN1C(=O)NC(CC2CCCC2)CCCCCOc2nc(cn3ccnc23)-c2cc(ncc2OC)[C@H]1C` (single isomer, unassigned) [Example 65A], the hOX2R_Ipone max %act is on record as 102.4% and the EC50 was 13.5 nM.

In the case of `CCN1C(=O)NC(CC2CCCC2)CCCCCOc2nc(cn3ccnc23)-c2cc(ncc2OC)[C@H]1C` (single isomer, unassigned) [Example 65B], the hOX2R_Ipone max %act is given as 101.9% and the EC50 was determined as 1 nM.

With `CCN1C(=O)NC(CC2(C(F)(F)F)CC2)CCCCCOc2nc(cn3ccnc23)-c2cc(ncc2OC)[C@H]1C` (single isomer, unassigned) [Example 66A], the hOX2R_Ipone max %act came to 102.9% and the EC50 was 9.6 nM.

As to `CCN1C(=O)NC(CC2(C(F)(F)F)CC2)CCCCCOc2nc(cn3ccnc23)-c2cc(ncc2OC)[C@H]1C` (single isomer, unassigned) [Example 66B], the hOX2R_Ipone max %act was determined as 101.1% and the EC50 is 0.7 nM.

Regarding `CCN1C(=O)NC(CC2CCOC2)CCCCCOc2nc(cn3ccnc23)-c2cc(ncc2OC)[C@H]1C` (single isomer, unassigned) [Example 67A], the hOX2R_Ipone max %act stood at 99.8% and the EC50 was found to be 9.6 nM.

Turning to `CCN1C(=O)NC(CC2CCOC2)CCCCCOc2nc(cn3ccnc23)-c2cc(ncc2OC)[C@H]1C` (single isomer, unassigned) [Example 67B], the hOX2R_Ipone max %act is reported as 101% and the EC50 is 2.1 nM.

`CCN1C(=O)NC(C2CCOCC2)CCCCCOc2nc(cn3ccnc23)-c2cc(ncc2OC)[C@H]1C` (single isomer, unassigned) [Example 68A]: the hOX2R_Ipone max %act came out at 100.1% and the EC50 was determined as 38.4 nM.

On to `CCN1C(=O)NC(C2CCOCC2)CCCCCOc2nc(cn3ccnc23)-c2cc(ncc2OC)[C@H]1C` (single isomer, unassigned) [Example 68B], for which the hOX2R_Ipone max %act is 101.5% and the EC50 was found to be 1.5 nM.

On to `CCN1C(=O)NC(CC2CC(F)(F)C2)CCCCCOc2nc(cn3ccnc23)-c2cc(ncc2OC)[C@H]1C` (single isomer, unassigned) [Example 69A], for which the hOX2R_Ipone max %act was determined as 99.7% and the 50% effective concentration (EC50) came out at 6.6 nM.

Turning to `CCN1C(=O)NC(CC2CC(F)(F)C2)CCCCCOc2nc(cn3ccnc23)-c2cc(ncc2OC)[C@H]1C` (single isomer, unassigned) [Example 69B], the hOX2R_Ipone max %act turned out to be 101.1% and the EC50 worked out at 0.6 nM.

As to `CCN1C(=O)NC(CC2(C(F)F)CC2)CCCCCOc2nc(cn3ccnc23)-c2cc(ncc2OC)[C@H]1C` (single isomer, unassigned) [Example 70A], the hOX2R_Ipone max %act came to 99.1% and the EC50 was found to be 16.5 nM.

For `CCN1C(=O)NC(CC2(C(F)F)CC2)CCCCCOc2nc(cn3ccnc23)-c2cc(ncc2OC)[C@H]1C` (single isomer, unassigned) [Example 70B], the hOX2R_Ipone max %act was 99.8% and the EC50 stood at 1.1 nM.

With `CCN1C(=O)NC(CCC(C)(C)F)CCCCCOc2nc(cn3ccnc23)-c2cc(ncc2OC)[C@H]1C` (single isomer, unassigned) [Example 71A], the hOX2R_Ipone max %act is given as 100.5% and the EC50 came out at 4.2 nM.

For the molecule `CCN1C(=O)NC(CCC(C)(C)F)CCCCCOc2nc(cn3ccnc23)-c2cc(ncc2OC)[C@H]1C` (single isomer, unassigned) [Example 71B], the hOX2R_Ipone max %act was 101.6% and the EC50 worked out at 1.6 nM.

For `CCN1C(=O)NC(CCC(C)F)CCCCCOc2nc(cn3ccnc23)-c2cc(ncc2OC)[C@H]1C` (single isomer, unassigned) [Example 72A], the hOX2R_Ipone max %act worked out at 99.5% and the EC50 was determined as 5.6 nM.

For `CCN1C(=O)NC(CCC(C)F)CCCCCOc2nc(cn3ccnc23)-c2cc(ncc2OC)[C@H]1C` (single isomer, unassigned) [Example 72B], the hOX2R_Ipone max %act amounted to 102.7% and the EC50 is 0.7 nM.

`CCN1C(=O)NC(CCOC(F)(F)F)CCCCCOc2nc(cn3ccnc23)-c2cc(ncc2OC)[C@H]1C` (single isomer, unassigned) [Example 73A]: the hOX2R_Ipone max %act worked out at 100.6% and the EC50 was 8.6 nM.

As for `CCN1C(=O)NC(CCOC(F)(F)F)CCCCCOc2nc(cn3ccnc23)-c2cc(ncc2OC)[C@H]1C` (single isomer, unassigned) [Example 73B], the hOX2R_Ipone max %act worked out at 99.6% and the EC50 turned out to be 0.8 nM.

In the case of `CCN1C(=O)N[C@@H](CCC(F)(F)F)CCCCCOc2nc(cn3ccnc23)-c2cc(nc3ccoc23)C1C` (single isomer, unassigned) [Example 74A], the hOX2R_Ipone max %act came to 99.5% and the EC50 came out at 17.3 nM.

In the case of `CCN1C(=O)N[C@@H](CCC(F)(F)F)CCCCCOc2nc(cn3ccnc23)-c2cc(nc3ccoc23)C1C` (single isomer, unassigned) [Example 74B], the hOX2R_Ipone max %act is recorded as 101.2% and the EC50 came to 0.9 nM.
